# Experimental data taken from US20260001928A1 (CORTERIA PHARMACEUTICALS, priority 2022, published 2026).
# *1 amine or outer side, *2 acyl side, *3 side chain or, on linkers, in order; H or OH if unused. Where a SMILES comes first, the peptide text is derived from it. Side-chain parts run from the residue outwards. [ ]: non-standard residue; d: D form. The star is where a group is joined. C20 diacid = O=C(O)CCCCCCCCCCCCCCCCCCC(=O)*; C18 diacid = O=C(O)CCCCCCCCCCCCCCCCC(=O)*; γGlu = O=C(O)[C@H](CCC(=O)[*:2])N[*:1]; C14 diacid = O=C(O)CCCCCCCCCCCCC(=O)*; X1 = O=C(CC1(N[*:1])CCOCC1)[*:2]; AEEA = NCCOCCOCC(=O)O; Aib = CC(C)(N)C(=O)O
# Key:
# [1] = In vitro subcutaneous tissue supernatant (SCts) stability and metabolite identification, rat; format: in vitro ADME; parameters: remaining at 2 h: dose or concentration left out as unconfirmed; conditions: male, Sprague Dawley; rat subcutaneous tissue supernatant (SCts), 37° C, 2 h
# Sprague Dawley rats = assay: Effect on systolic blood pressure, telemetry in Sprague Dawley rats; format: in vivo, rat; conditions: 0.1 mg/kg SC
# Procedure, shortened: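 Sprague Dawley rats with abdominal-aorta telemetry catheters, recovered ≥10 days, received 0.1 mg/kg SC of compound or vehicle. Systolic pressure recorded 1 h pre-dose as baseline, then continuously up to 48 hours, expressed as % change from baseline; duration of action is last time point with a BP effect (n=2).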
# [2] = Chemical stability in buffer (pH 7.4 / pH 4.5), % purity loss; format: physicochemical; conditions: 100 mM phosphate buffer pH 7.4; 40° C. vs 5° C.; 14 or 28 days
# Procedure, shortened: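 Compounds dissolved at 10 mg/mL target in 100 mM phosphate (pH 7.4) or 100 mM acetate (pH 4.5) buffer for 1 h at room temperature, then centrifuged. Diluted supernatant stored at 5 °C or 40 °C for 14 or 28 days; % purity loss by LC-UV.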
# [3] = Pharmacokinetics in male Sprague Dawley rats after subcutaneous administration; format: in vivo; conditions: plasma, rat, SC, 0.05 mg/kg
# Procedure: The pharmacokinetics of UCN-2 derivatives was studied in male Sprague Dawley rats after subcutaneous administration (SC) at 0.05, 0.1, 0.3 or 1 mg/kg. Peptides were formulated as a solution in 10 mM phosphate pH 7.4 buffer+glycerol 85% (2.3% v/v)). […] The supernatant (200 μL) was analyzed by LC-MSMS. Pharmacokinetic parameters were calculated using established non-compartmental methods. The area under the plasma concentration curve versus time (AUC) was determined using Watson LIMS (version 7.6), with linear trapezoidal interpolation in the ascending slope and logarithmic trapezoidal interpolation in the descending slope. The portion of the AUC from the last measurable concentration to infinity was estimated from the equation, Ct/kel, where Ct represents the last measurable concentration and kel is the elimination rate constant. The latter was determined from the concentration curve versus time by linear regression at the terminal phase of the semi-logarithmic plot.
# CFR1R receptor = target: T1, CFR1R receptor (Homo sapiens, UniProt P34998); assay: Activity at anti-target CFR1R receptor, cAMP assay in CRF1R-overexpression CHO-K1 cells; format: cell-based; conditions: 100% = Sauvagine at 100 nM; for EC50: cAMP
# T1 construct: host or cells: CHO-K1 (clone 2)
# T1 sequence (P34998 24-415): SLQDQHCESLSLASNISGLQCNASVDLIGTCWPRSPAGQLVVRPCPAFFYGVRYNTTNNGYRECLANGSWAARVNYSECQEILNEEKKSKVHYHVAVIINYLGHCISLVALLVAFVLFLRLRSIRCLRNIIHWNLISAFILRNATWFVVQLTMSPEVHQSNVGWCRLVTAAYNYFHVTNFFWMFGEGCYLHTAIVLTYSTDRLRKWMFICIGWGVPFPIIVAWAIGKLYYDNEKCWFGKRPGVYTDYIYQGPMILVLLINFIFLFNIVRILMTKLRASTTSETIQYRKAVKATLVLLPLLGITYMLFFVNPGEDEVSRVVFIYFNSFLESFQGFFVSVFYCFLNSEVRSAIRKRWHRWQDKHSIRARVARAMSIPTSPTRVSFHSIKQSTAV
# Procedure, shortened: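 Signal is normalised to 100 nM Sauvagine, taken as 100% activation, in clone 2 cells plated at a final 4000 cells/well from frozen stocks.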
# human CRF2a receptor = target: T2, human CRF2a receptor (Homo sapiens, UniProt Q13324); assay: Activity at human CRF2a receptor, cAMP functional assay in TeloHEAC cells; format: cell-based; conditions: TeloHEAC cells stably expressing human CRF2a receptor, relative to urocortin 2 (100 nM = 100%)
# T2 construct: expressed in transfected cells; host or cells: TeloHEAC cells
# T2 sequence (Q13324 1-411): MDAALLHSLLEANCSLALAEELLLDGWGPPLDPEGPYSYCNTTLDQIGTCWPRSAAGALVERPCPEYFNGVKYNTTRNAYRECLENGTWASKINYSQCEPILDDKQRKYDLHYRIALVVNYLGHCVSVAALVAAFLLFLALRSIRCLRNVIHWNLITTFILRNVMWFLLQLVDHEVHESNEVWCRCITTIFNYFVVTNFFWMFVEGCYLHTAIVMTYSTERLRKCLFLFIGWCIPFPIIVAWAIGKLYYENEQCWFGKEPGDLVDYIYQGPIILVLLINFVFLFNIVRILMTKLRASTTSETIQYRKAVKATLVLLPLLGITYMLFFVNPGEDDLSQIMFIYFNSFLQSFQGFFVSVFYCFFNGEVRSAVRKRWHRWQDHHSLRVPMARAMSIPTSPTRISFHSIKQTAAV
# Procedure, shortened: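 TeloHEAC cells stably expressing human CRF2a (10000 cells/well) were treated with 16-point 1:2 compound dilutions in HBSS/20 mM HEPES with IBMX for 30 min at 37° C. cAMP was read by HTRF (665/620 nm ratio). EC50 was the concentration giving 50% activation, with 100 nM urocortin 2 set as 100%.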
# [4] = Pharmacokinetics in male Sprague Dawley rats after subcutaneous administration; format: in vivo; conditions: plasma, rat, IV, 0.05 mg/kg
remaining at 2 h [1] [%],Buffer stability pH 7.4 % purity loss [2],AUC(0-t) [3] [ng·h/mL],Cmax [3] [ng/mL],Tmax [3] [h],half-life [3] [h],Emax (% I) (CFR1R receptor),EC50 (CFR1R receptor) [nM],EC50 (human CRF2a receptor) [nM],AUC(0-t) [4] [ng·h/mL],half-life [4] [h],SMILES,"Systolic blood pressure (Mean) % change from baseline, 8 h (Sprague Dawley rats; 8 h, n=2) [%]","Systolic blood pressure (Mean) % change from baseline, 12 h (Sprague Dawley rats; 12 h, n=2) [%]","Systolic blood pressure (Mean) % change from baseline, 24 h (Sprague Dawley rats; 24 h, n=2) [%]",Duration of action (Sprague Dawley rats; last time point with an effect on BP still observed) [h]
82,0.0/Not Tested %,221,64,0.75,1.4,,,,,,CC[C@H](C)[C@H](NC(C)=O)C(=O)N[C@H](C(=O)N[C@@H](CC(C)C)C(=O)N[C@@H](CO)C(=O)N[C@@H](CC(C)C)C(=O)N[C@@H](CC(=O)O)C(=O)N[C@@H](C(=O)N1CCC[C@H]1C(=O)N[C@H](C(=O)N[C@@H](CCCCN)C(=O)N[C@@H](CC(C)C)C(=O)N[C@@H](CCCCNC(=O)CC[C@H](NC(=O)CCCCCCCCCCCCC(=O)O)C(=O)O)C(=O)N[C@@H](CCCCN)C(=O)N[C@H](C(=O)N[C@@H](CC(C)C)C(=O)N[C@@H](CC(C)C)C(=O)N[C@@H](CCC(=O)O)C(=O)N[C@@H](CCC(N)=O)C(=O)N[C@@H](CCC(=O)O)C(=O)N[C@@H](CCCCN)C(=O)N[C@@H](CCC(N)=O)C(=O)N[C@@H](CCCCN)C(=O)N[C@@H](CCCCN)C(=O)N[C@@H](CCC(N)=O)C(=O)N[C@@H](CCCNC(=N)N)C(=O)N[C@@H](CCC(=O)O)C(=O)N[C@@H](CCC(N)=O)C(=O)N[C@@H](C)C(=O)N[C@@H](CCC(=O)O)C(=O)N[C@H](C(=O)N[C@@H](CC(N)=O)C(=O)NC(C)(C)C(=O)N[C@@H](CCC(N)=O)C(=O)N[C@H](C(=O)N[C@@H](CC(C)C)C(=O)N[C@@H](C)C(=O)N[C@@H](CCC(N)=O)C(=O)N[C@H](C(N)=O)C(C)C)[C@@H](C)CC)[C@@H](C)O)[C@@H](C)CC)[C@@H](C)CC)C(C)C)C(C)C [compound 82] (Ac-IVLSLD[dV]PIKLK([γGlu-C14 diacid])KILLEQEKQKKQREQAETN[Aib]QILAQV-NH2),−33,−4,11,14
83,0/Not Tested %,1620,111,6,10.2,11,> 250,0.16,,,CC[C@H](C)[C@H](NC(C)=O)C(=O)N[C@H](C(=O)N[C@@H](CC(C)C)C(=O)N[C@@H](CO)C(=O)N[C@@H](CC(C)C)C(=O)N[C@@H](CC(=O)O)C(=O)N[C@@H](C(=O)N1CCC[C@H]1C(=O)N[C@H](C(=O)N[C@@H](CCCCN)C(=O)N[C@@H](CC(C)C)C(=O)N[C@@H](CCCCNC(=O)CC[C@H](NC(=O)CCCCCCCCCCCCCCCCC(=O)O)C(=O)O)C(=O)N[C@@H](CCCCN)C(=O)N[C@H](C(=O)N[C@@H](CC(C)C)C(=O)N[C@@H](CC(C)C)C(=O)N[C@@H](CCC(=O)O)C(=O)N[C@@H](CCC(N)=O)C(=O)N[C@@H](CCC(=O)O)C(=O)N[C@@H](CCCCN)C(=O)N[C@@H](CCC(N)=O)C(=O)N[C@@H](CCCCN)C(=O)N[C@@H](CCCCN)C(=O)N[C@@H](CCC(N)=O)C(=O)N[C@@H](CCCNC(=N)N)C(=O)N[C@@H](CCC(=O)O)C(=O)N[C@@H](CCC(N)=O)C(=O)N[C@@H](C)C(=O)N[C@@H](CCC(=O)O)C(=O)N[C@H](C(=O)N[C@@H](CC(N)=O)C(=O)NC1(CC(=O)N[C@@H](CCC(N)=O)C(=O)N[C@H](C(=O)N[C@@H](CC(C)C)C(=O)N[C@@H](C)C(=O)N[C@@H](CCC(N)=O)C(=O)N[C@H](C(N)=O)C(C)C)[C@@H](C)CC)CCOCC1)[C@@H](C)O)[C@@H](C)CC)[C@@H](C)CC)C(C)C)C(C)C [compound 199] (Ac-IVLSLD[dV]PIKLK([γGlu-C18 diacid])KILLEQEKQKKQREQAETN[X1]QILAQV-NH2),,,,
75,3.8/Not Tested %,,,,,7,> 250,0.54,8250,15,CC[C@H](C)[C@H](NC(C)=O)C(=O)N[C@H](C(=O)N[C@@H](CC(C)C)C(=O)N[C@@H](CO)C(=O)N[C@@H](CC(C)C)C(=O)N[C@@H](CC(=O)O)C(=O)N[C@@H](C(=O)N1CCC[C@H]1C(=O)N[C@H](C(=O)N[C@@H](CCCCN)C(=O)N[C@@H](CC(C)C)C(=O)N[C@@H](CCCCNC(=O)COCCOCCNC(=O)COCCOCCNC(=O)CC[C@H](NC(=O)CCCCCCCCCCCCCCCCCCC(=O)O)C(=O)O)C(=O)N[C@@H](CCCCN)C(=O)N[C@H](C(=O)N[C@@H](CC(C)C)C(=O)N[C@@H](CC(C)C)C(=O)N[C@@H](CCC(=O)O)C(=O)N[C@@H](CCC(N)=O)C(=O)N[C@@H](CCC(=O)O)C(=O)N[C@@H](CCCCN)C(=O)N[C@@H](CCC(N)=O)C(=O)N[C@@H](CCCCN)C(=O)N[C@@H](CCC(=O)O)C(=O)N[C@@H](CCC(N)=O)C(=O)N[C@@H](CCCNC(=N)N)C(=O)N[C@@H](CCC(=O)O)C(=O)N[C@@H](CCC(N)=O)C(=O)N[C@@H](C)C(=O)N[C@@H](CCC(=O)O)C(=O)N[C@H](C(=O)N[C@@H](CC(N)=O)C(=O)NC(C)(C)C(=O)N[C@@H](CCC(N)=O)C(=O)N[C@H](C(=O)N[C@@H](CC(C)C)C(=O)N[C@@H](C)C(=O)N[C@@H](CCC(N)=O)C(=O)N[C@H](C(N)=O)C(C)C)[C@@H](C)CC)[C@@H](C)O)[C@@H](C)CC)[C@@H](C)CC)C(C)C)C(C)C [compound 236] (Ac-IVLSLD[dV]PIKLK([AEEA-AEEA-γGlu-C20 diacid])KILLEQEKQKEQREQAETN[Aib]QILAQV-NH2),,,,
68,2.0/Not Tested %,,,,,7,> 250,0.56,6210,15,CC[C@H](C)[C@H](NC(C)=O)C(=O)N[C@H](C(=O)N[C@@H](CC(C)C)C(=O)N[C@@H](CO)C(=O)N[C@@H](CC(C)C)C(=O)N[C@@H](CC(=O)O)C(=O)N[C@@H](C(=O)N1CCC[C@H]1C(=O)N[C@H](C(=O)N[C@@H](CCCCN)C(=O)N[C@@H](CC(C)C)C(=O)N[C@@H](CCCCNC(=O)CC[C@H](NC(=O)CC[C@H](NC(=O)CCCCCCCCCCCCCCCCCCC(=O)O)C(=O)O)C(=O)O)C(=O)N[C@@H](CCCCN)C(=O)N[C@H](C(=O)N[C@@H](CC(C)C)C(=O)N[C@@H](CC(C)C)C(=O)N[C@@H](CCC(=O)O)C(=O)N[C@@H](CCC(N)=O)C(=O)N[C@@H](CCC(=O)O)C(=O)N[C@@H](CCCCN)C(=O)N[C@@H](CCC(N)=O)C(=O)N[C@@H](CCCCN)C(=O)N[C@@H](CCC(=O)O)C(=O)N[C@@H](CCC(N)=O)C(=O)N[C@@H](CCCNC(=N)N)C(=O)N[C@@H](CCC(=O)O)C(=O)N[C@@H](CCC(N)=O)C(=O)N[C@@H](C)C(=O)N[C@@H](CCC(=O)O)C(=O)N[C@H](C(=O)N[C@@H](CC(N)=O)C(=O)NC(C)(C)C(=O)N[C@@H](CCC(N)=O)C(=O)N[C@H](C(=O)N[C@@H](CC(C)C)C(=O)N[C@@H](C)C(=O)N[C@@H](CCC(N)=O)C(=O)N[C@H](C(N)=O)C(C)C)[C@@H](C)CC)[C@@H](C)O)[C@@H](C)CC)[C@@H](C)CC)C(C)C)C(C)C [compound 241] (Ac-IVLSLD[dV]PIKLK([γGlu-γGlu-C20 diacid])KILLEQEKQKEQREQAETN[Aib]QILAQV-NH2),,,,
